Source: ChEMBL document CHEMBL1146918, “Synthesis and anti-angiogenesis activity of coumarin derivatives” (Bioorg Med Chem Lett, 2006)

Legend:
U-87 MG = assay: Antiproliferative activity against human U87 MG cell line; format: functional, cell-based, U-87MG ATCC
B16 = assay: Antiproliferative activity against mouse B16 cell line; format: functional, cell-based
HeLa = assay: Antiproliferative activity against human HeLa cell line; format: functional, cell-based
DLD-1 = assay: Antiproliferative activity against human DLD1 cell line; format: functional, cell-based
SiHa = assay: Antiproliferative activity against human SiHa cell line; format: functional, cell-based
NIH3T3 = assay: Antiproliferative activity against mouse NIH3T3 cell line; format: functional, cell-based
HUVEC = assay: Antiproliferative activity against HUVEC cell line; format: functional, cell-based; settings: Homo sapiens

| Structure (SMILES) | IC50 (U-87 MG) | IC50 (B16) | IC50 (HeLa) | IC50 (DLD-1) | IC50 (DLD-1; read-out: IC50) | IC50 (SiHa) | IC50 (NIH3T3) | IC50 (HUVEC) |
| --- | --- | --- | --- | --- | --- | --- | --- | --- |
| CC(=O)O[C@H]1C(=O)[C@@]2(C)[C@H]([C@H](OC(=O)c3ccccc3)[C@]3(O)C[C@H](OC(=O)[C@H](O)[C@@H](NC(=O)c4ccccc4)c4ccccc4)C(C)=C1C3(C)C)[C@]1(OC(C)=O)CO[C@@H]1C[C@@H]2O [PACLITAXEL] | 0.08 µM | 0.08 µM | 0.47 µM | 0.09 µM |  | 3.5 µM | 1.29 µM | 0.06 µM |
| CCN(CC)c1ccc2c(C#N)c(-c3nc4ccccc4s3)c(=O)oc2c1 | > 70 µM | > 70 µM | > 70 µM |  | > 70 µM | > 70 µM | > 70 µM | 4.8 µM |
| CCN(CC)c1ccc2cc(-c3nc4ccccc4[nH]3)c(=O)oc2c1 | 15 µM | 12.6 µM | > 70 µM |  | > 70 µM | 62.1 µM | 9.3 µM | 9.6 µM |

Now from value to molecule, other results behind:

| IC50 (U-87 MG) | IC50 (B16) | IC50 (HeLa) | IC50 (DLD-1) | IC50 (DLD-1; read-out: IC50) | Structure (SMILES) | IC50 (SiHa) | IC50 (NIH3T3) | IC50 (HUVEC) |
| --- | --- | --- | --- | --- | --- | --- | --- | --- |
| 33.4 µM | 8.9 µM | 11.6 µM |  | 35.2 µM | O=c1oc2c3c4c(cc2cc1-c1nc2ccccc2[nH]1)CCCN4CCC3 | 14.6 µM | 41.4 µM | 3.3 µM |
| > 70 µM | > 70 µM | > 70 µM |  | > 70 µM | O=Cc1cc2c3c(c1O)CCCN3CCC2 | > 70 µM | > 70 µM | 35.4 µM |
| > 70 µM | > 70 µM | > 70 µM |  | > 70 µM | CCN(CC)c1ccc2cc(-c3nc4ccccc4s3)c(=O)oc2c1 | > 70 µM | > 70 µM | > 70 µM |
| > 70 µM | > 70 µM | > 70 µM |  | > 70 µM | O=c1oc2c3c4c(cc2cc1[N+](=O)[O-])CCCN4CCC3 | > 70 µM | > 70 µM | > 70 µM |
| > 70 µM | > 70 µM | > 70 µM |  | > 70 µM | CCN(CC)c1ccc2cc(C(C)=O)c(=O)oc2c1 | > 70 µM | > 70 µM | > 70 µM |
